According to the supplement of paper PMC10307832:

Key:
Experiment in all cases: relative viability (nuclei count vs DMSO), 5 days (fraction); higher = more cells survive
Salubrinal + Crizotinib = compound: O=C(/C=C/c1ccccc1)NC(NC(=S)Nc1cccc2cccnc12)C(Cl)(Cl)Cl [Salubrinal] + C[C@@H](Oc1cc(-c2cnn(C3CCNCC3)c2)cnc1N)c1c(Cl)ccc(F)c1Cl [Crizotinib] (partner 1 µM)
Outline: (§1)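 Each reported value is a median over duplicate plates. It expresses relative viability: treated-well nuclei count divided by vehicle-well nuclei count. Lung cancer cell lines in 1536-well plates were dosed by pin tool a day after seeding, alone with one drug or with a fixed anchor-drug dose plus five library-drug doses (not always all listed) in √10 steps, and nuclei were counted after 5 days.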

[1] = compound: Cc1ccc2nc(NCCN)c3ncc(C)n3c2c1 + O=C(c1cc(Cc2n[nH]c(=O)c3ccccc23)ccc1F)N1CCN(C(=O)C2CC2)CC1 [Olaparib] (partner 8 µM)
Outline: as §1

Salubrinal + Trametinib = compound: O=C(/C=C/c1ccccc1)NC(NC(=S)Nc1cccc2cccnc12)C(Cl)(Cl)Cl [Salubrinal] + CC(=O)Nc1cccc(-n2c(=O)n(C3CC3)c(=O)c3c(Nc4ccc(I)cc4F)n(C)c(=O)c(C)c32)c1 [Trametinib] (partner 0.02 µM)
Outline: as §1

Salubrinal + OSI-027 = compound: O=C(/C=C/c1ccccc1)NC(NC(=S)Nc1cccc2cccnc12)C(Cl)(Cl)Cl [Salubrinal] + COc1cccc2cc(-c3nc([C@H]4CC[C@H](C(=O)O)CC4)n4ncnc(N)c34)[nH]c12 [OSI-027] (partner 0.5 µM)
Outline: as §1

| Cell Line | relative viability (Salubrinal + Crizotinib; first compound 0.08 µM) | relative viability (Salubrinal + Crizotinib; first compound 0.253 µM) | relative viability (Salubrinal + Crizotinib; first compound 0.8 µM) | relative viability (Salubrinal + Crizotinib; first compound 2.53 µM) | relative viability (Salubrinal + Crizotinib; first compound 8 µM) | relative viability ([1]; first compound 0.04 µM) | relative viability ([1]; first compound 0.1265 µM) | relative viability ([1]; first compound 0.4 µM) | relative viability ([1]; first compound 1.265 µM) | relative viability ([1]; first compound 4 µM) | relative viability (Salubrinal + Trametinib; first compound 0.08 µM) | relative viability (Salubrinal + Trametinib; first compound 0.253 µM) | relative viability (Salubrinal + Trametinib; first compound 0.8 µM) | relative viability (Salubrinal + Trametinib; first compound 2.53 µM) | relative viability (Salubrinal + Trametinib; first compound 8 µM) | relative viability (Salubrinal + OSI-027; first compound 0.08 µM) | relative viability (Salubrinal + OSI-027; first compound 0.253 µM) | relative viability (Salubrinal + OSI-027; first compound 0.8 µM) | relative viability (Salubrinal + OSI-027; first compound 2.53 µM) | relative viability (Salubrinal + OSI-027; first compound 8 µM) |
| --- | --- | --- | --- | --- | --- | --- | --- | --- | --- | --- | --- | --- | --- | --- | --- | --- | --- | --- | --- | --- |
| HCC-44 | 0.833 | 0.801 | 0.863 | 0.748 | 0.759 | 0.999 | 0.96 | 0.955 | 1 | 0.977 | 1.19 | 1.11 | 1.16 | 1.09 | 1.04 | 0.371 | 0.411 | 0.759 | 0.501 | 0.484 |
| HCC-78 | 0.363 | 0.325 | 0.398 | 0.308 | 0.302 | 0.746 | 0.861 | 0.655 | 0.587 | 0.766 | 0.869 | 0.692 | 0.652 | 0.791 | 0.686 | 0.363 | 0.364 | 0.435 | 0.362 | 0.361 |
| HCC-366 | 0.798 | 0.437 | 0.777 | 0.393 | 0.55 | 0.388 | 0.394 | 0.36 | 0.352 | 0.366 | 0.509 |  | 0.379 | 0.306 | 0.233 | 1.04 | 1.13 | 0.91 | 0.844 | 0.549 |
| HCC-827 | 0.901 | 0.921 | 0.992 | 0.475 | 0.844 | 0.689 | 0.73 | 0.661 | 0.639 | 0.607 | 0.586 | 0.544 | 0.515 | 0.5 | 0.548 | 0.88 | 0.794 | 0.822 | 0.788 | 0.668 |
| HOP-62 | 1.04 | 0.965 | 1.21 | 0.914 | 0.26 | 0.286 | 0.457 | 0.436 | 0.417 | 0.42 | 0.438 | 0.369 | 0.382 | 0.343 | 0.338 | 0.819 | 0.765 | 1.11 | 0.849 | 0.714 |
| IA-LM | 0.784 | 0.602 | 1.19 | 0.767 | 0.575 | 0.73 | 0.793 | 0.974 | 0.795 | 0.721 |  |  |  |  |  |  |  |  |  |  |
| LC-2-ad | 0.447 | 0.385 | 0.537 | 0.471 | 0.459 | 0.729 | 0.743 | 0.71 | 0.768 | 0.71 | 1.01 | 0.848 | 0.885 | 0.946 | 0.917 | 0.91 | 0.797 | 1.03 | 0.818 | 0.782 |
| LCLC-97TM1 | 0.382 | 0.507 | 0.446 |  | 0.364 | 0.491 | 0.428 | 0.462 | 0.417 | 0.338 | 0.186 | 0.185 | 0.209 | 0.17 | 0.235 | 0.574 | 0.433 | 0.671 | 0.56 | 0.601 |
| LCLC-103H | 1.07 | 1.06 | 1.05 | 1.07 | 0.984 | 0.752 | 0.748 | 0.778 | 0.743 | 0.739 | 0.737 | 0.682 | 0.691 | 0.738 | 0.673 | 0.494 | 0.393 | 0.5 | 0.49 | 0.398 |
| LK-2 | 0.249 | 0.252 | 0.247 | 0.218 | 0.23 | 0.707 | 0.778 | 0.706 | 0.757 | 0.672 | 0.918 | 0.812 | 0.819 | 0.722 | 0.744 | 0.185 | 0.194 | 0.258 | 0.212 | 0.214 |
| LOU-NH91 | 0.787 | 0.747 | 0.74 | 0.756 | 0.75 | 0.921 | 0.92 | 0.877 | 0.868 | 0.865 | 0.728 | 0.822 | 0.788 | 0.824 | 0.757 | 0.721 | 0.708 | 0.744 | 0.737 | 0.688 |
| NCI-H522 |  |  |  |  |  | 0.62 | 0.708 | 0.585 | 0.648 | 0.635 | 0.631 | 0.802 | 0.639 | 0.859 | 0.709 | 0.74 | 0.661 | 0.734 | 0.791 | 0.571 |
| NCI-H1299 | 0.993 | 0.802 | 0.943 | 0.99 | 0.925 | 0.973 | 0.965 | 0.985 | 0.891 | 0.767 |  |  |  |  |  |  |  |  |  |  |
| NCI-H1395 |  |  |  |  |  | 0.47 | 0.467 | 0.491 | 0.429 | 0.437 | 1.15 | 1.15 | 1.18 | 0.972 | 1.02 | 0.705 | 0.675 | 0.682 | 0.605 | 0.624 |
| NCI-H1563 | 0.853 | 0.859 | 0.878 | 0.851 | 0.962 |  |  |  |  |  |  |  |  |  |  | 0.784 | 0.751 | 0.74 | 0.741 | 0.695 |
| NCI-H1648 |  |  |  |  |  | 1.08 | 0.846 | 0.789 | 0.843 | 0.666 | 0.657 | 0.456 | 0.662 | 0.492 | 0.325 | 0.23 | 0.268 | 0.257 | 0.269 | 0.266 |
| NCI-H1703 | 0.535 |  | 1.06 | 0.701 | 0.576 | 0.393 | 0.362 | 0.619 | 0.47 | 0.437 |  |  |  |  |  |  |  |  |  |  |
| NCI-H1793 |  |  |  |  |  | 1.06 | 0.812 | 0.836 | 0.651 | 0.795 | 0.484 | 0.437 | 0.402 | 0.42 | 0.304 | 0.308 | 0.331 | 0.307 | 0.23 | 0.236 |
| NCI-H2342 |  |  |  |  |  | 0.593 | 0.439 | 0.453 | 0.411 | 0.503 | 0.966 | 0.806 | 0.758 | 0.775 | 0.88 | 0.653 | 0.523 | 0.608 | 0.639 | 0.561 |
| SW 900 |  |  |  |  |  |  | 0.865 | 0.884 | 0.874 | 0.827 | 0.69 | 0.765 | 0.7 | 0.774 | 1 | 0.545 |  | 0.737 | 0.576 | 0.481 |
